Earlier results as cited in PMC4422128, “Discovery of sea urchin NGFFFamide receptor unites a bilaterian neuropeptide family” (Open Biology, 2015).
Entries after “also recorded” stand apart in the source; their conditions may differ. Positions of bridges follow the written chain, without caps; N, C: chain ends. No end group written: not given here.

Assays:
[1] = system: arthropods; conditions: insects (b4)
Description: Furthermore, the ligand that activ ... || Our discovery that the NPS/CCAP-type receptor in the sea urchin S. purpuratus is activated by the NG peptide NGFFFamide provides a basis for investigation of the physiological roles of NG peptides in deuterostomian invertebrates. This will provide new insights into the evolution of the physiological and behavioural functions of NPS/NG peptide/CCAP-type neuropeptides in the animal kingdom. Based upon what is currently known, a common theme seems to be a role in control of behaviours that are associated with a heightened state of arousal. Thus, NPS causes anxiolysis and arousal in mammals, ...

[2] = system: crab hearts; parameters: method as in PMID 16593803
[3] = system: NPSR-type protein in Drosophila
Description: Furthermore, the ligand that activ ...

[4] = system: VRR1/GPR154 (NPSR); parameters: method as in PMID 15312648; conditions: purified from brain extracts
[5] = system: rodents; conditions: rodents (b3); mammals
Description: This will provide new insights into the evolution of the physiological and behavioural functions of NPS/NG peptide/CCAP-type neuropeptides in the animal kingdom. Based upon what is currently known, a common theme seems to be a role in control of behaviours that are associated with a heightened state of arousal. Thus, NPS causes anxiolysis and arousal in mammals, ...

Substance | control/activation of ecdysis [1] | effect on crab hearts [2] | activation of NPSR-type protein in Drosophila [3] | ligand activity at VRR1/GPR154, NPS [4] | physiological action of NPS: anxiety [5] | physiological action of NPS: arousal [5]
PFCNAFTGC-NH2 (disulfide 3-9 (inferred)) [CCAP, crustacean cardioactive peptide] | activates the ecdysis motor programme; also recorded: controls ecdysis behaviour in insects | excitatory effect on crab hearts | activates the NPSR-type protein in Drosophila |  |  | 
SFRNGVGTGMKKTSFQRAKS [NPS, neuropeptide-S] |  |  |  | endogenous ligand | anxiolytic-like action; also recorded: anxiolysis | causing arousal
